These compounds were tested on HBeAg level (surrogate marker for cccDNA) in HepDES19 cells (assay: Engineered HepDES19 primary screen assay (HBeAg as surrogate marker for cccDNA)). Conditions: Hepatitis B virus, HepDES19, 120 h, read-out: IC50 (HBeAg) in HepDES19 primary screen assay, HepDES19 cells, 5 days incubation with compound, HBeAg by ELISA.
Format: cell-based, HBV
From the text: The assay was employed to screen for novel cccDNA inhibitors. HepDES19 is a cccDNA-producing cell line. In this cell line, HBeAg in the cell culture supernatant as surrogate marker, as HBeAg production depends on cccDNA level and activity. HepDES19 is an engineered cell line which contains a 1.1 unit length HBV genome, and pgRNA transcription from the transgene is controlled by Tetracycline (Tet). In the absence of Tet, pgRNA transcription will be induced, but HBV e antigen (HBeAg) could not be produced from this pgRNA due to very short leader sequence before the HBeAg start codon and the start codon is disrupted. Only after cccDNA is formed, the missing leader sequence and start codon mutation would be restored from the 3′-terminal redundancy of pgRNA, and then HBeAg could be synthesized. Therefore, HBeAg could be used as a surrogate marker for cccDNA (Zhou, T. et al., Antiviral Res. (2006), 72(2), 116-124; Guo, H. et al., J. Virol. (2007), 81(22), 12472-12484).
HepDES19 cells were seeded at 2×10^6 cells per T150 flask and cultured with the culture medium (Dulbecco's Modified Eagle Medium: Nutrient Mixture F-12 [DMEM-F12, Gibco Cat. 11320-82], 10% Fetal Bovine Serum [FBS, Clontech Cat. 631101], 0.1 mM Non-Essential Amino Acids Solution [NEAA, Gibco Cat. 11140-050], 50 μg/mL Penicillin-Streptomycin [PS, Invitrogen Cat. 15140-163], 500 μg/mL Geneticin [G418, Invitrogen Cat. 10131-027]) containing 3 μg/mL Tet (Sigma, Cat. 87128) for 5 days. Cells were then seeded at 4×10^6 cells per T150 in the same culture medium as described above in the absence of Tet for 8 days. Cells were then harvested and frozen at density of 2×10^6 cells per mL. For compound testing, the frozen cells were thawed and seeded into 96-well plates at a density of 6×10^4 cells per well. At 24 hrs after seeding, half log serial dilutions of compounds made with Dimethyl sulfoxide (DMSO, Sigma, Cat. D2650) were further diluted with the same culture medium as described above before they were added to the cells to reach desired final compound concentrations and 1% DMSO concentration. Plates were then incubated at 37° C. for another 5 days before measurement of HBeAg level and cell viability. Intracellular HBeAg level were measured with enzyme-linked immunosorbent assay (ELISA) kit (Shanghai Kehua Diagnostic Medical Products Co., Ltd). Cell viability was assessed using Cell Counting Kit-8 (Donjindo, Cat. CK04-20). IC50 values were derived from the dose-response curve using 4 parameter logistic curve fit method.
The compounds of the present invention were tested for their capacity to inhibit extracellular HBeAg level as described herein.
For `O=c1cc(-c2ccc(OCCO[C@H]3CC[C@@H](C(=O)O)CC3)cc2)oc2c(Cl)cccc12` (single isomer, unassigned) [Example 7-A, 4-[2-[4-(8-chloro-4-oxo-chromen-2-yl)phenoxy]ethoxy]cyclohexanecarboxylic acid], the IC50 was 15.4 µM. In the case of `O=C(O)COCCOc1ccc(-c2cc(=O)c3cccc(Cl)c3o2)cc1` [Example 9, 2-[2-[4-(8-chloro-4-oxo-chromen-2-yl)phenoxy]ethoxy]acetic acid], the IC50 is reported as 2.46 µM. `O=C(O)C1CC(OCCOc2ccc(-c3cc(=O)c4cc(F)cc(Cl)c4o3)cc2)C1` (stereo not drawn) [Example 20, 3-[2-[4-(8-chloro-6-fluoro-4-oxo-chromen-2-yl)phenoxy]ethoxy]cyclobutanecarboxylic acid] showed an IC50 of 0.7 µM. For `N#Cc1cc(Cl)c2oc(-c3ccc(OCCOC4CC(C(=O)O)C4)cc3)cc(=O)c2c1` (stereo not drawn) [Example 22, 3-[2-[4-(8-chloro-6-cyano-4-oxo-chromen-2-yl)phenoxy]ethoxy]cyclobutanecarboxylic acid], the IC50 was 13 µM. Work on `CC(C)Oc1ccc(Cl)c2oc(-c3ccc(OCCO[C@H]4C[C@@H](C(=O)O)C4)cc3)cc(=O)c12` [Example 27, Cis-3-[2-[4-(8-chloro-5-isopropoxy-4-oxo-chromen-2-yl)phenoxy]ethoxy]cyclobutanecarboxylic acid] yielded an IC50 of 7.68 µM. Work on `Cc1ccc(Cl)c2oc(-c3ccc(OCCO[C@H]4C[C@@H](C(=O)O)C4)cc3)cc(=O)c12` [Example 31, Cis-3-[2-[4-(8-chloro-5-methyl-4-oxo-chromen-2-yl)phenoxy]ethoxy]cyclobutanecarboxylic acid] yielded an IC50 of 0.78 µM. Compound `O=c1cc(-c2ccc(OCCO[C@H]3C[C@@H](C(=O)O)C3)cc2)oc2c(C3CC3)cccc12` [Example 34, Cis-3-[2-[4-(8-cyclopropyl-4-oxo-chromen-2-yl)phenoxy]ethoxy]cyclobutanecarboxylic acid] has an IC50 of 16 µM. With `Cc1cccc2c(=O)cc(-c3ccc(OCCO[C@H]4C[C@@H](C(=O)O)C4)cc3)oc12` [Example 35, Cis-3-[2-[4-(8-methyl-4-oxo-chromen-2-yl)phenoxy]ethoxy]cyclobutanecarboxylic acid] the IC50 was 13.9 µM. Work on `O=C(O)COCCOc1ccc(-c2cc(=O)c3c(F)ccc(Cl)c3o2)cc1` [Example 37, 2-[2-[4-(8-chloro-5-fluoro-4-oxo-chromen-2-yl)phenoxy]ethoxy]acetic acid] yielded an IC50 of 8.97 µM. Compound `COC(=O)[C@H]1C[C@@H](OCCOc2ccc(-c3cc(=O)c4cccc(Cl)c4o3)nn2)C1` [Example 41, Cis-methyl 3-[2-[6-(8-chloro-4-oxo-chromen-2-yl)pyridazin-3-yl]oxyethoxy]cyclobutanecarboxylate] has an IC50 of 12.8 µM. In the case of `CC(C)c1cc(-c2cc(=O)c3cccc(Cl)c3o2)ccc1OCCOC1CC(C(=O)O)C1` (stereo not drawn) [Example 48, 3-[2-[4-(8-chloro-4-oxo-chromen-2-yl)-2-isopropyl-phenoxy]ethoxy]cyclobutanecarboxylic acid], the IC50 is reported as 7.68 µM. In the case of `COc1c(-c2ccc(OCCO[C@H]3C[C@@H](C(=O)O)C3)cc2)oc2c(Cl)cccc2c1=O` [Example 56, Cis-3-[2-[4-(8-chloro-3-methoxy-4-oxo-chromen-2-yl)phenoxy]ethoxy]cyclobutanecarboxylic acid], the IC50 is reported as 29.6 µM. With `O=C(O)COCCOc1ccc(-c2oc3c(Cl)cccc3c(=O)c2O)cc1` [Example 59, 2-[2-[4-(8-chloro-3-hydroxy-4-oxo-chromen-2-yl)phenoxy]ethoxy]acetic acid] the IC50 was 20.2 µM. `O=C(O)C1CC(OCCOc2ccc(-c3cc(=O)c4cccc(Cl)c4o3)c(N3CCOCC3)c2)C1` (stereo not drawn) [Example 60, 3-[2-[4-(8-chloro-4-oxo-chromen-2-yl)-3-morpholino-phenoxy]ethoxy]cyclobutanecarboxylic acid] gave an IC50 of 4.84 µM. `NC(=O)COCCOc1ccc(-c2cc(=O)c3cccc(Cl)c3o2)cc1` [Example 61, 2-[2-[4-(8-chloro-4-oxo-chromen-2-yl)phenoxy]ethoxy]acetamide] gave an IC50 of 0.144 µM. `O=C(O)C1CC(OCCOc2ccc(-c3oc4c(Cl)cccc4c(=O)c3Br)cc2)C1` (stereo not drawn) [Example 64, 3-[2-[4-(3-bromo-8-chloro-4-oxo-chromen-2-yl)phenoxy]ethoxy]cyclobutanecarboxylic acid] gave an IC50 of 5.5 µM. `O=C(O)C1CC(OCCOc2ccc(-c3oc4c(Cl)cccc4c(=O)c3OCc3ccccc3)cc2)C1` (stereo not drawn) [Example 65, 3-[2-[4-(3-benzyloxy-8-chloro-4-oxo-chromen-2-yl)phenoxy]ethoxy]cyclobutanecarboxylic acid] gave an IC50 of 6.5 µM. With `O=C(O)C1CC(OCCOc2ccc(-c3cc(=O)c4cc(N5CCCC5=O)cc(Cl)c4o3)cc2)C1` (stereo not drawn) [Example 68, 3-[2-[4-[8-chloro-4-oxo-6-(2-oxopyrrolidin-1-yl)chromen-2-yl]phenoxy]ethoxy]cyclobutanecarboxylic acid] the IC50 was 10.1 µM. In the case of `O=C(O)C1CC(OCCOc2ccc(-c3cc(=O)c4ccc(C5CC5)c(Cl)c4o3)cc2)C1` (stereo not drawn) [Example 70, 3-[2-[4-(8-chloro-7-cyclopropyl-4-oxo-chromen-2-yl)phenoxy]ethoxy]cyclobutanecarboxylic acid], the IC50 is reported as 17.2 µM. `CCOC(=O)COCCOc1ccc(-c2cc(=O)c3ccc(Br)c(Cl)c3o2)cc1` [Example 71, ethyl 2-[2-[4-(7-bromo-8-chloro-4-oxo-chromen-2-yl)phenoxy]ethoxy]acetate] was tested, and the IC50 was 9.3 µM.

Same assay, conditions: read-out: IC50 (HBeAg) in HepDES19 primary screen assay; HepDES19 cells, 5 days incubation with compound, HBeAg by ELISA
With `O=C(O)[C@H]1C[C@H]1OCCOc1ccc(-c2cc(=O)c3cccc(Cl)c3o2)cc1` (single isomer, unassigned) [Example 5-A, 2-[2-[4-(8-chloro-4-oxo-chromen-2-yl)phenoxy]ethoxy]cyclopropanecarboxylic acid] the IC50 was 1.36 µM. Work on `O=c1cc(-c2ccc(OCCO[C@H]3CC[C@@H](C(=O)O)CC3)cc2)oc2c(Cl)cccc12` (single isomer, unassigned) [Example 7-B, 4-[2-[4-(8-chloro-4-oxo-chromen-2-yl)phenoxy]ethoxy]cyclohexanecarboxylic acid] yielded an IC50 of 19.7 µM. With `COC(=O)C1CC(OCCOc2ccc(-c3oc4c(Cl)cc(F)cc4c(=O)c3OC(F)(F)F)cc2)C1` (single isomer, unassigned) [Example 62-B, methyl 3-[2-[4-[8-chloro-6-fluoro-4-oxo-3-(trifluoromethoxy)chromen-2-yl]phenoxy]ethoxy]cyclobutanecarboxylate] the IC50 was 1.32 µM. With `O=C(O)C1CC(OCCOc2ccc(-c3cc(=O)c4ccc(C5CC5)c(Cl)c4o3)cc2)C1` (single isomer, unassigned) [Example 70-A, 3-[2-[4-(8-chloro-7-cyclopropyl-4-oxo-chromen-2-yl)phenoxy]ethoxy]cyclobutanecarboxylic acid] the IC50 was 19.8 µM.
